The test system of test [1] is colonic dysplasia (flat lesions and polyps). The test can be described thus: In vivo NIR fluorescence endoscopy of colon in CPC;Apc mouse. As to conditions: for mean (±SD) log of the T/B ratio: topical 100 μM, 5 min incubation. The protocol:
(§1) For the in vivo fluorescence images of mouse colon, the T/B ratios for flat dysplasia and polyps were log-transformed to improve normality. The fold-change between classification pairs was estimated using the anti-log of the difference in the log-transformed data. Differences in results between the experimental and control peptides were evaluated on t-test. *P<0.05 was considered significant. Similar methods were used to evaluate the ex vivo fluorescence images of human colonic specimens. The results were plotted on a receiver-operator characteristic (ROC) curve. Co-localization of peptide and antibody binding was evaluated on Pearson's correlation coefficient. All analyses were performed using custom Matlab software (MathWorks Inc).
Mouse imaging studies were performed with approval of the University of Michigan Committee on the Use and Care of Animals (UCUCA). The mice were housed in pathogen-free conditions and supplied water ad libitum under controlled conditions of humidity (50±10%), light (12/12 hour light/dark cycle) and temperature (25° C.). Anesthesia was induced and maintained via a nose cone with inhaled isoflurane mixed with oxygen at a concentration of 2-4% at a flow rate of ˜0.5 L/min. The colon was first rinsed with tap water to remove mucous and debris. White light illumination was used first to identify anatomic landmarks, including polyps, mucosal folds, colonic segment, and distance of endoscope tip from anus, to register images with histology. The Cy5.5-labeled peptides were delivered at a concentration of 100 μM in a volume of 1.5 mL through the 3 Fr instrument channel. After 5 min for incubation, the colon was rinsed 3× with a tap water to remove the unbound peptides. After imaging was completed, the mice were euthanized. The colon was resected, and divided along the longitudinal axis. Flat lesions and polyps were identified on fluorescence, excised perpendicular to the mucosal surface, and processed for histology (H&E). We collected images from mice (n=5) that ranged in age from 7 to 10 months.
Imaging was performed using a small animal endoscope (Karl Storz Veterinary Endoscopy).^39 A xenon light source provides white light illumination via a fluid light cable. A diode-pumped solid state laser (TechnicaLaser Inc) provides excitation at λex=671 nm. The laser beam is expanded to a diameter of 3 mm to fill the aperture of the light cable. The laser power at the tip of the endoscope is <2 mW. The white light images reflect off a dichroic mirror (Semrock Inc, # FF685-Di02-25×36, λc=685 nm), and are focused by an achromatic doublet (Edmund Optics Inc, #32-323). They pass through a neutral density filter (OD 1), and are detected by a color camera (Point Grey Research, # GX-FW-28S5C-C). The fluorescence images pass through the dichroic and a band pass filter (Semrock Inc, # FF01-716/40-25, λC=716 nm, Δλ=40 nm), and are focused on a monochrome camera (Point Grey Research, # GX-FW-28S5M-C). All videos (1932×1452 resolution) are recorded at 15 frames per sec via a firewire connection.
White light and fluorescence videos were exported in avi format with 24 (RGB) and 8 (grayscale) bit digital resolution for the color and fluorescence images, respectively. […] Individual frames were exported using custom Matlab software. On the fluorescence images, 3 regions of interest (ROI, 25×25 pixels) were picked at random within the dysplastic lesion and within adjacent areas of normal-appearing mucosa. The mean intensities within these ROI's on the fluorescence images were measured. The target to-background (T/B) ratio for each image was determined by ratioing the mean intensities of these two ROIs.

Test [2] concerns human biliary tract epithelium. The test can be described thus: Immunofluorescence of QRH*-Cy5.5 on human biliary tract epithelium.
The next test deals with human colonic dysplasia. The test can be described thus: Binding of EGFR peptide and antibody to human colonic dysplasia specimens, confocal microscopy. As to conditions: for log transformed fluorescence intensity, mean (±std): 5 μM, 10 min. The method, then: as §1
Specimens of human colonic mucosa were obtained from biopsy during routine colonoscopy, frozen in OCT, cut in 10 μm sections, and incubated with QRH*-Cy5.5 (5 μM) in 1×PBS for 10 min at RT. The sections were washed 3× with PBS and incubated overnight at 4° C. with 1:1000 dilution of primary monoclonal rabbit anti-EGFR antibody (Cell Signaling Technology, #4267, isotype IgG). The sections were washed with PBS 3× and incubated with 1:500 dilution of Alexa Fluor 488-labeled secondary goat anti-rabbit antibody (Invitrogen) for 1 hour at RT. The sections were washed with PBS 3×, and fixed with 4% PFA for 10 min. The sections were then washed with PBS 1×, and mounted with ProLong Gold reagent containing DAPI (Invitrogen). Confocal fluorescence images were collected with DAPI, FITC and Cy5.5 filters with 20× objective (Leica TCS SP5 Microsystems). The mean fluorescence intensities from 3 boxes (dimensions of 30×30 μm2) located completely within the surface epithelium of each specimen were measured. […] Adjacent sections were processed for routine histology (H&E) that was reviewed by two gastrointestinal pathologists (SRO and HDA).

The subject of test [3] is HT29, SW480, and SW620 cells. The test can be described thus: Flow cytometry binding to colorectal cancer cells. The test is classed as cell-based, human. As to conditions: 5 μM, 1 hour, 4° C. The protocol:
HT29, SW480, and SW620 cells were grown to confluence and detached with enzyme-free, PBS-based cell dissociation buffer (Gibco, #13151-014) and cell scrapper. The cells were centrifuged at 1500 rpm for 5 min at 4° C., and then blocked with 0.5% BSA in PBS for 30 min on ice and washed with PBS. […] were incubated with 5 μM of either QRH*-Cy5.5 or PEH*-Cy5 for 1 hour at 4° C. with mixing. Cells incubated with PBS alone were used as control. The cells were centrifuged again, washed 3× with cold PBS, and fixed on ice with 4% PFA for 10 min. Flow cytometry was performed with ˜10^4 cells/sample (BD® LSRII, BD Biosciences), and analyzed with the Flowjo software (Tree Star Inc).
A general note: A flow cytometer gives signals particle by particle.

In another test the test system is HT29 cells. In words: Apparent association time constant on flow cytometry. Format: binding, human. The method, then:
We measured the apparent association time constant of the peptide to HT29 cells as an assessment of binding onset. HT29 cells were grown to […] confluence in 10 cm dishes, and detached with PBS-based cell dissociation buffer (Invitrogen). Cells (˜10^5) were incubated with 5 μM QRH*-Cy5.5 at 4° C. for various time intervals ranging from 0 to 20 min. The cells were centrifuged, washed with cold PBS, and fixed with 4% PFA. Flow cytometry analysis was performed as described above, and the median fluorescence intensity (y) was ratioed with that of HT29 cells without addition of peptide at different time points (t) using Flowjo software. The rate constant k was calculated by fitting the data to a first order kinetics model, y(t)=Imax[1−exp^(−kt)], where Imax=maximum value,^60 using Prism 5.0 software (GraphPad Inc).

“QRHKPRE (SEQ ID NO: 1) with Cy5.5 fluorophore attached via a GGGSK linker (SEQ ID NO: 18) on the C-terminus [QRH*-Cy5.5]”: the “mean fold-difference of T/B, QRH*-Cy5.5 versus PEH*-Cy5.5” value in test [1] (flat lesions (n=15)) is given as 2.05; in test [1] (polyps (n=15)) it was 2.43. Moreover, the “mean (±SD) log of the T/B ratio” value in test [1] (flat lesions (n=15)) is recorded as 0.420±0.103; in test [1] (polyps (n=15)) it was 0.572±0.181. The “NIR fluorescence signal from polyp and flat lesions in vivo” value in test [1] (topical, distal colon, 5 min) is listed as “increased intensity”. Also, the staining on immunofluorescence result in test [2] (biliary intraepithelial neoplasia (BilIN) and biliary tract cancer) is on record as “intense staining”; in test [2] (normal biliary tract epithelium), “minimal staining”. For the same substance, the “average fold-change for dysplasia compared to normal” value in the test on human colonic dysplasia was 19.4. Moreover, the results for the “log transformed fluorescence intensity, mean (±std)” value in the test on human colonic dysplasia (dysplasia (n=29)) and in the test with human colonic dysplasia (normal (n=15)) were 1.04±0.54 and −0.248±0.49, respectively. Moreover, the “binding on flow cytometry compared with control peptide” value in test [3] was “stronger binding to each cell than PEH*-Cy5.5”. Also, in the test on HT29 cells, the “binding time scale (onset)” value turned out to be 2.46 min. Moreover, in the test on HT29 cells (5 μM, 4° C., flow cytometry), the “apparent association time constant k” value was determined as 0.406 min⁻¹.

The values above are taken from patent publication US20200102349A1, “PEPTIDE REAGENTS AND METHODS FOR DETECTION AND TARGETING OF DYSPLASIA, EARLY CANCER AND CANCER” (THE REGENTS OF THE UNIVERSITY OF MICHIGAN, priority 2014, published 2020).
